PubChem BioAssay AID248 (DTP/NCI, 2004)
Values joined by “and” are separate entries in the source; they are usually repeats but may differ in a detail not shown here. Equal entries are not always repeated. Inconclusive results and toxic doses are left out.

Test system: L1210 leukemia ip in BDF1 mice, survival T/C
Experiment: NCI In Vivo Anticancer Drug Screen. Data for tumor model L1210 Leukemia (intraperitoneal) in B6D2F1 (BDF1) mice
Settings: endpoint: mean survival time, higher = longer survival
In short: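 Each compound was tested against a transplantable tumor grown in mice. The endpoint was survival, with treated animals benchmarked against vehicle controls as a simple ratio.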

[1] = dose: 50.0 mg/kg/injection, schedule: Q01DX001 (ip), vehicle: carboxymethylcellulose (CMC)
[2] = dose: 100.0 mg/kg/injection, schedule: Q01DX001 (ip), vehicle: carboxymethylcellulose (CMC)
[3] = dose: 200.0 mg/kg/injection, schedule: Q01DX001 (ip), vehicle: carboxymethylcellulose (CMC)

CCOc1cc(/C=N\Nc2nncn2N)c(C)cc1N(CCCl)CCCl
T/C (dose: 1.3 mg/kg/injection, schedule: Q01DX015 (ip), vehicle: carboxymethylcellulose (CMC)): 107 % of control | T/C (dose: 1.5 mg/kg/injection, schedule: Q01DX015 (ip), vehicle: carboxymethylcellulose (CMC)): 120 % of control | T/C (dose: 2.6 mg/kg/injection, schedule: Q01DX015 (ip), vehicle: carboxymethylcellulose (CMC)): 100 % of control | T/C (dose: 15.0 mg/kg/injection, schedule: Q01DX015 (ip), vehicle: carboxymethylcellulose (CMC)): 102 % of control and 109 % of control | T/C (dose: 22.0 mg/kg/injection, schedule: Q01DX001 (ip), vehicle: carboxymethylcellulose (CMC)): 118 % of control | T/C [1]: 110 % of control | T/C [2]: 123 % of control | T/C [3]: 89 % of control

O=C(NCc1ccccc1)Sc1ccccc1
T/C (dose: 87.5 mg/kg/injection, schedule: Q01DX001 (ip), vehicle: Klucel (hydroxypropylcellulose) (HPC)): 96 % of control

Clc1ccc(CSc2ncc(Br)c(Cl)n2)cc1
T/C (dose: 100.0 mg/kg/injection, schedule: Q01DX Z (ip), vehicle: methylcellulose (MC)): 90 % of control | T/C (dose: 200.0 mg/kg/injection, schedule: Q01DX Z (ip), vehicle: methylcellulose (MC)): 99 % of control

O=[N+]([O-])c1ccc(/C=C/c2ccccc2)c([N+](=O)[O-])c1
T/C (dose: 100.0 mg/kg/injection, schedule: Q04DX003 (ip), vehicle: Klucel (hydroxypropylcellulose) (HPC)): 104 % of control | T/C (dose: 200.0 mg/kg/injection, schedule: Q04DX003 (ip), vehicle: Klucel (hydroxypropylcellulose) (HPC)): 98 % of control | T/C (dose: 400.0 mg/kg/injection, schedule: Q04DX003 (ip), vehicle: Klucel (hydroxypropylcellulose) (HPC)): 101 % of control

CC(=O)NC1(C#N)c2ccccc2-c2ccccc21
T/C [1]: 104 % of control | T/C [2]: 104 % of control | T/C [3]: 102 % of control | T/C (dose: 400.0 mg/kg/injection, schedule: Q01DX001 (ip), vehicle: carboxymethylcellulose (CMC)): 104 % of control

CC(=O)OC(C)c1ccc(Cl)cc1 (configuration not stated)
T/C (dose: 100.0 mg/kg/injection, schedule: Q04DX002 (ip), vehicle: saline with Tween-80): 101 % of control | T/C (dose: 200.0 mg/kg/injection, schedule: Q04DX002 (ip), vehicle: saline with Tween-80): 97 % of control | T/C (dose: 400.0 mg/kg/injection, schedule: Q04DX002 (ip), vehicle: saline with Tween-80): 93 % of control

O=[N+]([O-])c1cccc([N+](=O)[O-])c1/C=N/Nc1nnc(N/N=C/c2c([N+](=O)[O-])cccc2[N+](=O)[O-])c2ccccc12
T/C (dose: 50.0 mg/kg/injection, schedule: Q01DX001 (ip), vehicle: saline): 100 % of control | T/C (dose: 100.0 mg/kg/injection, schedule: Q01DX001 (ip), vehicle: saline): 103 % of control | T/C (dose: 200.0 mg/kg/injection, schedule: Q01DX001 (ip), vehicle: saline): 100 % of control | T/C (dose: 400.0 mg/kg/injection, schedule: Q01DX001 (ip), vehicle: saline): 100 % of control

Clc1nc(Cl)nc(-c2cccn2-c2ccccc2)n1
T/C (dose: 6.25 mg/kg/injection, schedule: Q01DX009 (ip), vehicle: saline with Tween-80): 92 % of control | T/C (dose: 100.0 mg/kg/injection, schedule: Q04DX003 (ip), vehicle: acetone): 101 % of control | T/C (dose: 100.0 mg/kg/injection, schedule: Q04DX003 (ip), vehicle: saline): 101 % of control | T/C (dose: 200.0 mg/kg/injection, schedule: Q04DX003 (ip), vehicle: acetone): 86 % of control | T/C (dose: 400.0 mg/kg/injection, schedule: Q04DX003 (ip), vehicle: saline): 93 % of control

NC(Cc1ccc(OC2CCCC2)c(N(CCCl)CCCl)c1)C(=O)O (configuration not stated)
T/C (dose: 0.6 mg/kg/injection, schedule: Q01DX009 (ip), vehicle: carboxymethylcellulose (CMC)): 122 % of control | T/C (dose: 3.8 mg/kg/injection, schedule: Q01DX009 (ip), vehicle: saline): 102 % of control | T/C (dose: 4.4 mg/kg/injection, schedule: Q01DX001 (ip), vehicle: carboxymethylcellulose (CMC)): 107 % of control | T/C (dose: 5.7 mg/kg/injection, schedule: Q01DX009 (ip), vehicle: saline): 103 % of control | T/C (dose: 6.6 mg/kg/injection, schedule: Q01DX001 (ip), vehicle: carboxymethylcellulose (CMC)): 111 % of control | T/C (dose: 8.5 mg/kg/injection, schedule: Q01DX001 (ip), vehicle: carboxymethylcellulose (CMC)): 111 % of control | T/C (dose: 8.5 mg/kg/injection, schedule: Q01DX009 (ip), vehicle: carboxymethylcellulose (CMC)): 155 % of control | T/C (dose: 8.5 mg/kg/injection, schedule: Q01DX009 (ip), vehicle: saline): 110 % of control | T/C (dose: 8.8 mg/kg/injection, schedule: Q01DX009 (ip), vehicle: carboxymethylcellulose (CMC)): 115 % of control | T/C (dose: 10.0 mg/kg/injection, schedule: Q01DX001 (ip), vehicle: carboxymethylcellulose (CMC)): 120 % of control | T/C (dose: 13.0 mg/kg/injection, schedule: Q01DX001 (ip), vehicle: carboxymethylcellulose (CMC)): 114 % of control | T/C (dose: 13.0 mg/kg/injection, schedule: Q01DX009 (ip), vehicle: carboxymethylcellulose (CMC)): 152 % of control | T/C (dose: 13.3 mg/kg/injection, schedule: Q01DX009 (ip), vehicle: carboxymethylcellulose (CMC)): 88 % of control | T/C (dose: 20.0 mg/kg/injection, schedule: Q01DX009 (ip), vehicle: carboxymethylcellulose (CMC)): 215 % of control | T/C (dose: 20.0 mg/kg/injection, schedule: Q01DX009 (ip), vehicle: saline): 119 % of control | T/C (dose: 30.0 mg/kg/injection, schedule: Q01DX001 (ip), vehicle: carboxymethylcellulose (CMC)): 202 % of control | T/C (dose: 30.0 mg/kg/injection, schedule: Q01DX009 (ip), vehicle: saline): 98 % of control
